According to BindingDB's records for patent US11130748 (Mission Therapeutics, 2021):

Biological target: T1, Ubiquitin carboxyl-terminal hydrolase 30 (Homo sapiens, UniProt Q70CQ3)
T1 sequence (Q70CQ3 whole entry): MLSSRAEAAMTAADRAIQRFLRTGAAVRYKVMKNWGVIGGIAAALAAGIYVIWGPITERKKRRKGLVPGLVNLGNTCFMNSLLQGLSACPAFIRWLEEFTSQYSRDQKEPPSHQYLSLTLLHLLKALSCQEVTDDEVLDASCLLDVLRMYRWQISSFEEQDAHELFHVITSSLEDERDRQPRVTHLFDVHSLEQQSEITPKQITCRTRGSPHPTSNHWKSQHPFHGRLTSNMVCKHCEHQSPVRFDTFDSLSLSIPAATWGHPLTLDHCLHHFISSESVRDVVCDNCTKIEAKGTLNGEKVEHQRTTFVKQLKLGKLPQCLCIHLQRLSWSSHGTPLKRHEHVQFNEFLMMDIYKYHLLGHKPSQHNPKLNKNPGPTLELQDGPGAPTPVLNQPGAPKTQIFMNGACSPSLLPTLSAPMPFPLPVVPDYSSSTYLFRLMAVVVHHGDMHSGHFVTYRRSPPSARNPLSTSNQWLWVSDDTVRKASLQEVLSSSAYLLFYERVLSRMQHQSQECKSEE
Experiment: Biochemical Assay
Description: Dilution plates were prepared at 21 times the final concentration (2100 μM for a final concentration of 100 μM) in 50% DMSO in a 96-well polypropylene V-bottom plate (Greiner #651201). A typical 8-point dilution series to be 100, 30, 10, 3, 1, 0.3, 0.1, 0.03 μM final. Reactions were performed in duplicate in black 384 well plates (small volume, Greiner 784076) in a final reaction volume of 21 μl. Either 1 μl of 50% DMSO or diluted compound was added to the plate. USP30 was diluted in reaction buffer (40 mM Tris, pH 7.5, 0.005% Tween 20, 0.5 mg/ml BSA, 5 mM beta-mercaptoethanol) to the equivalent of 0.05 μl/well and 10 μl of diluted USP30 was added to the compound. Enzyme and compound were incubated for 30 min at room temp. Reactions were initiated by the addition of 50 nM of TAMRA labelled peptide linked to ubiquitin via an iso-peptide bond as fluorescence polarisation substrate. Reactions were read immediately after addition of substrate and following a 2 hr incubation at room temperature. Readings were performed on a Pherastar Plus (BMG Labtech). λ Excitation 540 nm; λ Emission 590 nm.

## N#CN1CC[C@H](CNC(=O)c2ncc(-c3ccccc3)s2)C1 [US11130748, Example 61]
  IC50: in the range around 550 nM
